Key:
CYP = experiment: Activation energy differences from experimental regioselectivity of substrates in rapid equilibrium; format: in vitro ADME; set-up: unit not given here; conditions: difference in activation energy calculated by the experimental regioselectivity
Description: Five substrates shown to undergo rapid equilibrium between positions of metabolism have been used to prepare data for regression and then correlation with Eq. 1. The differences in activation energy calculated by the experimental regioselectivity of the substrates, along with the differences in AM1 activation enthalpies, are given in Table 1. Regression of the experimental data gives a slope correction for AM1 activation energies of 0.75±0.20.

CYP2C8 [1] = molecular target: T1, CYP2C8 (Homo sapiens, UniProt P10632); conditions: pH 7.4
T1 sequence (P10632 1-490): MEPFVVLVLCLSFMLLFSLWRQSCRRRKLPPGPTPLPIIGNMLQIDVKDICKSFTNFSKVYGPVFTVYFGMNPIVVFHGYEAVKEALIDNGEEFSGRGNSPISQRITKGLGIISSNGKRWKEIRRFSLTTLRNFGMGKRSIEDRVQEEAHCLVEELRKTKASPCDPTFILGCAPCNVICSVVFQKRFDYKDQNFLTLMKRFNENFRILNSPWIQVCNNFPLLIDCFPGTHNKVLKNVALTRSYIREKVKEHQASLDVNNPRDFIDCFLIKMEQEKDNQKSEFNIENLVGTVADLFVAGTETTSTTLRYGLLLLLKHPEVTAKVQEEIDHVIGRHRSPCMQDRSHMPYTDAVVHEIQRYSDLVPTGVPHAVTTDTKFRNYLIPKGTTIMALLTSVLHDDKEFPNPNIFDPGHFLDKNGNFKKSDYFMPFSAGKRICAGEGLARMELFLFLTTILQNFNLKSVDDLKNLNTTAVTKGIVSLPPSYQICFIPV

CYP2B1 = molecular target: T2, CYP2B1 (Rattus norvegicus, UniProt P00176); experiment: in vitro
T2 sequence (P00176 1-491): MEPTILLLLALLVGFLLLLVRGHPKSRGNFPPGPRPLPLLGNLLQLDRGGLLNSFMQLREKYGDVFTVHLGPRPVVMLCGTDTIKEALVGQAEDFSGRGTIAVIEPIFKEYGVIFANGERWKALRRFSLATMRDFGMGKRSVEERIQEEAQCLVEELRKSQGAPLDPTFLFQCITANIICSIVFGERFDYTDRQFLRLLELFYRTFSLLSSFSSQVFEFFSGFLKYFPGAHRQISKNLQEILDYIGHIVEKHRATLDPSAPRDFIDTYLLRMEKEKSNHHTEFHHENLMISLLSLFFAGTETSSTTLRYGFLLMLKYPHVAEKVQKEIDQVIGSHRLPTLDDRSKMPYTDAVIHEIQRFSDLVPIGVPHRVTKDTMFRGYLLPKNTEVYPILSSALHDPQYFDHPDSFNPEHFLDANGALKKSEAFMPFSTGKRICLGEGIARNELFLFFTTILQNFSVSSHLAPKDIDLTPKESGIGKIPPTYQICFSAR

CYP2B6 = molecular target: T3, CYP2B6 (Homo sapiens, UniProt P20813); experiment: in vitro
T3 sequence (P20813 1-491): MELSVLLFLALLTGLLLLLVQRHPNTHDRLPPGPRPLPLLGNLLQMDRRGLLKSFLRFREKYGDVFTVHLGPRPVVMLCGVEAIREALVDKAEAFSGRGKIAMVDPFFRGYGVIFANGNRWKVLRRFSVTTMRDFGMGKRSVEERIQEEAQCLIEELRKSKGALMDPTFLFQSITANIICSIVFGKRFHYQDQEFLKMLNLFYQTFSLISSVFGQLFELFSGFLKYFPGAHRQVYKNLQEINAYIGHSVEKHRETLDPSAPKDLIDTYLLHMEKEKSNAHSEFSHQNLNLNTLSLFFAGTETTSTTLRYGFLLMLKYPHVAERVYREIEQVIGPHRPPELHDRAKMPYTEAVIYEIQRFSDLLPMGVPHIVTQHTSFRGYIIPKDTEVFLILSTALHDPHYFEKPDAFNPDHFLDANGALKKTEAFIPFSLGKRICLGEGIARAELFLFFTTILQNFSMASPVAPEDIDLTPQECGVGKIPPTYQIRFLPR

CYP2C8 [2] = molecular target: T1, CYP2C8; experiment: in vitro; conditions: pH 7.4
CYP2E1 [3] = molecular target: T4, CYP2E1 (Homo sapiens, UniProt P05181); experiment: in vitro
CYP4B1 = CYP4B1 (Oryctolagus cuniculus, UniProt P15128); experiment: in vitro
CYP1A2, CYP2B1, CYP2E1 = experiment: in vitro; conditions: pH 7.4, Regioselectivity BzH:Arom, range, isoforms 1A2, 2B1 and 2E1
CYP2B6, CYP2C9, CYP4B1 = experiment: in vitro; conditions: pH 7.4, Regioselectivity BzH:Arom, range, isoforms 2B6, 2C9 and 4B1
multiple CYP isoforms = experiment: in vitro; conditions: pH 7.4, Regioselectivity BzH:ODAlk, range, range over the isoforms
CYP2E1 [4] = molecular target: T4, CYP2E1; experiment: Regioselectivity and inter-/intramolecular KIE for 4-methylanisole (Table 15); format: in vitro ADME
CYP3A4 = CYP3A4 (Homo sapiens, UniProt P08684); experiment: as above; format: in vitro ADME
CYP2C8 [5] = molecular target: T1, CYP2C8; experiment: as above; format: in vitro ADME
various CYP enzymes = conditions: mean over seven enzymes
[6] = pH 7.4, Regioselectivity BzH:Arom
[7] = pH 7.4, Regioselectivity BzH:ODAlk

T4 sequence (P05181 whole entry): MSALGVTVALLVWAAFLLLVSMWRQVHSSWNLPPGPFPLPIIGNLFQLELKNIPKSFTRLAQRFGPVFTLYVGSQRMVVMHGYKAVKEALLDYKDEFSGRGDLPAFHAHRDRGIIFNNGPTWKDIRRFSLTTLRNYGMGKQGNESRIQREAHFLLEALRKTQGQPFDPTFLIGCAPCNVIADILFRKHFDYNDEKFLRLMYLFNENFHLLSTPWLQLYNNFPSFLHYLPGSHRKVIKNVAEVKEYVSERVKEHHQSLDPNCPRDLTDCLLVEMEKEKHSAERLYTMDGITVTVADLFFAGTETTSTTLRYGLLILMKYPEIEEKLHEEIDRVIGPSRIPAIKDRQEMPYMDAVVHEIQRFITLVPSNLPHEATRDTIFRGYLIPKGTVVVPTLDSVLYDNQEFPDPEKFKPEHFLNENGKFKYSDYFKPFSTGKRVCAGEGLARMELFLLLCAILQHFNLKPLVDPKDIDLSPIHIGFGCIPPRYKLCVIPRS
CYP3A4, sequence (P08684 whole entry): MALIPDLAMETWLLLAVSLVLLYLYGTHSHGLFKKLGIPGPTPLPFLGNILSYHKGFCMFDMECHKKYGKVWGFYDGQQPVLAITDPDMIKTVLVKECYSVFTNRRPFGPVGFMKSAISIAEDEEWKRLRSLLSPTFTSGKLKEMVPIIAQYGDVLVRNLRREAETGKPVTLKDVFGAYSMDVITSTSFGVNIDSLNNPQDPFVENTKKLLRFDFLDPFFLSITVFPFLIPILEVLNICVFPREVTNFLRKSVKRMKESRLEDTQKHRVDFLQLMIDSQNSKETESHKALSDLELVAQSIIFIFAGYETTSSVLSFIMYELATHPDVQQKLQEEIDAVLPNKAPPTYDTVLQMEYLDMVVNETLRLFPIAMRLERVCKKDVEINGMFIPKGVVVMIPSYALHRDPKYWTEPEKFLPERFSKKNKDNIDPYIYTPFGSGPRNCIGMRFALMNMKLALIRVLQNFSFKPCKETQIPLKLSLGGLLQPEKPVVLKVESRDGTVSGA
CYP4B1, sequence (P15128 whole entry, canonical isoform): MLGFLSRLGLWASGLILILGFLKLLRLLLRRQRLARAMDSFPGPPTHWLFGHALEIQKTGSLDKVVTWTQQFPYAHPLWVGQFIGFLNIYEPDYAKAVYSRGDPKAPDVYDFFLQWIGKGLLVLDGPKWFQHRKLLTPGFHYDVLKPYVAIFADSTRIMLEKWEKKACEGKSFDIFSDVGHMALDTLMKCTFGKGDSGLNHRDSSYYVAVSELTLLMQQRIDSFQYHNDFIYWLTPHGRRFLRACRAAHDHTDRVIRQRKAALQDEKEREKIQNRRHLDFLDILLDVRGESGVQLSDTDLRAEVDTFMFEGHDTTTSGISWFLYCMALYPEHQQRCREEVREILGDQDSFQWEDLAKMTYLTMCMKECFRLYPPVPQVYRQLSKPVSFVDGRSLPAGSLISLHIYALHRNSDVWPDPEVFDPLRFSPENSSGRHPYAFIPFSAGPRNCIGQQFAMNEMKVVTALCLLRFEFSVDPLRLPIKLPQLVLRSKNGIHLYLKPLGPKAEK

## COc1ccccc1C [o-Methylanisole, o-methylanisole]
CYP
  ΔΔG (experimental): 0.3
CYP2C8 [1]
  Metabolite profile, Phenol: 33 Mol-%
  Metabolite profile, o-CR: 36 Mol-%
  Metabolite profile, o-MBA: 31 Mol-%
  nmol 4M3MPh: 0.2 nmol
  nmol TP: 0.6 nmol
  nmol o-CR: 0.2 nmol
  nmol o-MBA: 0.21 nmol
CYP2B1; [6]
  selectivity ratio: 0.31
CYP2B1; [7]
  selectivity ratio: 1.2
CYP2B6; [6]
  selectivity ratio: 2
CYP2B6; [7]
  selectivity ratio: 0.52
CYP2C8 [2]
  selectivity ratio: 1
CYP2E1 [3]; [6]
  selectivity ratio: 0.48
CYP2E1 [3]; [7]
  selectivity ratio: 1.6
CYP4B1; [6]
  selectivity ratio: 22
CYP4B1; [7]
  selectivity ratio: 0.7
CYP1A2, CYP2B1, CYP2E1
  selectivity ratio at 20 min, […]: 0.3 to 0.6
CYP2B6, CYP2C9, CYP4B1
  selectivity ratio at 20 min, […]: 1.6 to 22
Multiple CYP isoforms
  selectivity ratio at 20 min, […]: 1.2 to 3

## COc1ccc(C)cc1 [p-Methylanisole, p-methylanisole]
CYP2E1 [4]; CYP2E1 (Table 15)
  Intermolecular KIE: 6.53
  Intramolecular KIE: 4.02
CYP2E1 [4]; CYP2E1, benzylic oxidation vs O-dealkylation
  δΔG^†: 4.44 kJ/mol
CYP3A4; CYP3A4 (Table 15)
  Intermolecular KIE: 2.76
  Intramolecular KIE: 5.27
CYP3A4; CYP3A4, benzylic oxidation vs O-dealkylation
  δΔG^†: 6.74 kJ/mol
CYP2C8 [5]; CYP2C8 (Table 15)
  Intermolecular KIE: 3.60
  Intramolecular KIE: 3.60
CYP2C8 [5]; CYP2C8, benzylic oxidation vs O-dealkylation
  δΔG^†: 5.52 kJ/mol
CYP
  ΔΔG (experimental): 1.1
CYP2C8 [1]
  nmol p-CR: 0.20 nmol
  nmol p-MBA: 1.89 nmol
  nmol total TP: 2.08 nmol
Various CYP enzymes
  Benzylic/O-Dealkylation, Mean: 10.60 (5.85)
  Intermolecular KIE, Mean: 4.59
  Intramolecular KIE, Mean: 4.20
